We go through 35 compounds from patent US20080255169A1 (priority 2004, published 2008).

The structures appear in SMILES notation. pEC50: −log10 of the molar value. Bounds are passed on as bounds.

The assay concerns the target α2β1 integrin (Homo sapiens, UniProt P05556+P17301). Kind of assay: Cell adhesion assay. Type of assay: cell-based. As to conditions: for Emax: concentration not given, read-out: Emax in cell adhesion assay; for pEC50: read-out: EC50 in cell adhesion assay.

Sequence of α2β1 integrin (P17301 30-1181): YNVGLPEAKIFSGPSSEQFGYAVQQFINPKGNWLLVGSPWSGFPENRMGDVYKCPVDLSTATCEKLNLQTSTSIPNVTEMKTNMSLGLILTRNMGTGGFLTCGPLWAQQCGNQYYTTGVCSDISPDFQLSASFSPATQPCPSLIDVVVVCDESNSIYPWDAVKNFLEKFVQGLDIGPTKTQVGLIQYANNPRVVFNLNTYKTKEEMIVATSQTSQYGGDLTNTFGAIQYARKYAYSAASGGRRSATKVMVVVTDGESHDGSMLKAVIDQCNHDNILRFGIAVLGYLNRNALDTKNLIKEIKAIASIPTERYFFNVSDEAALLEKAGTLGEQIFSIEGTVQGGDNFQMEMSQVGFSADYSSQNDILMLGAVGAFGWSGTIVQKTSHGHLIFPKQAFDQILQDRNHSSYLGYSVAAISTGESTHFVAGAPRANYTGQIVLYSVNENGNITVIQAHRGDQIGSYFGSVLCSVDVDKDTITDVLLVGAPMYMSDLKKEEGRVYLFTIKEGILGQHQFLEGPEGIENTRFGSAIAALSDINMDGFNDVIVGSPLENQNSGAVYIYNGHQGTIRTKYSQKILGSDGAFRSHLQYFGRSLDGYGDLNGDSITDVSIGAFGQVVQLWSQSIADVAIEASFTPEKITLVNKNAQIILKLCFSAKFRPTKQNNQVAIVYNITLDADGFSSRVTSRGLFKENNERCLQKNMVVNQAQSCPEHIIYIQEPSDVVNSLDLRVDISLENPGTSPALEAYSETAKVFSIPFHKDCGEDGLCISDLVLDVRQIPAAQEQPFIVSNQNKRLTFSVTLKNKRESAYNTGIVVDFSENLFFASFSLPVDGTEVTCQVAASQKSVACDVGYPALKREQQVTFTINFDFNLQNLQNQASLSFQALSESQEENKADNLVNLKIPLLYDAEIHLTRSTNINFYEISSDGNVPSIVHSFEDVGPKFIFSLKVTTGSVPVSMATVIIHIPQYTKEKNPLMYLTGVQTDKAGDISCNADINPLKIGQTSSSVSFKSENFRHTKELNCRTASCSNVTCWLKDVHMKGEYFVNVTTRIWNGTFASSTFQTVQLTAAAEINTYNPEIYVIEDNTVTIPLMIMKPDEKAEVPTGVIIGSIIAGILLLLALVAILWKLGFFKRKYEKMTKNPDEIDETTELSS
Sequence of α2β1 integrin (P05556 21-798 partner): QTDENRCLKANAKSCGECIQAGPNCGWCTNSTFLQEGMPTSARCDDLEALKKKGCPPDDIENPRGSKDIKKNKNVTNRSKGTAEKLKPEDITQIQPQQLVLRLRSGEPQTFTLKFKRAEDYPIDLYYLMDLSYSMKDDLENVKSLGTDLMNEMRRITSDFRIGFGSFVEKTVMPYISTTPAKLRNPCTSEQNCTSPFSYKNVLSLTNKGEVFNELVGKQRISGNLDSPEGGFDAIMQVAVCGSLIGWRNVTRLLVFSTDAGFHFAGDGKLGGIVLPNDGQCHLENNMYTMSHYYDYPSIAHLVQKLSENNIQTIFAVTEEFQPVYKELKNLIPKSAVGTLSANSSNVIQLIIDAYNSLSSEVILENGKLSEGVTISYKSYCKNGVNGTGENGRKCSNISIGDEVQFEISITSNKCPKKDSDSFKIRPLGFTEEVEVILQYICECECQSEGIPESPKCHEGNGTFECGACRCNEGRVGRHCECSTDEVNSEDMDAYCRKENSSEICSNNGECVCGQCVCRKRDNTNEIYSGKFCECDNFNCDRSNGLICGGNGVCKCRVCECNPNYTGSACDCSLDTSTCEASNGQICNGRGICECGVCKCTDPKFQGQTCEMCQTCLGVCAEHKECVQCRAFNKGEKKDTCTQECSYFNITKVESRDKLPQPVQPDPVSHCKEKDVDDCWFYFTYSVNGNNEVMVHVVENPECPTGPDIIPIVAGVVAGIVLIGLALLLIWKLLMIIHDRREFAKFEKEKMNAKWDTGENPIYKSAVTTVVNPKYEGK

Regarding `Cc1nc2ccc(NS(=O)(=O)c3cccc(-c4ccc(F)cc4)c3)cc2o1` [Compound 187, 4′-fluoro-biphenyl-3-sulfonic acid (2-methyl-benzooxazol-6-yl)-amide], the maximal response (Emax) is 87% and the pEC50 was 4.74. On to `O=S(=O)(Nc1ccc(Nc2nc(Cl)nc(Cl)c2Cl)cc1)c1ccc(Cl)cc1` [Compound 170], for which the Emax at 40 µM was 85% and the negative logarithm of the EC50 (pEC50) is 4.62. Turning to `Cc1cc(F)ccc1-c1cccc(S(=O)(=O)N(C)c2ccc(N(C)C)cc2)c1` [Compound 321], the maximal effect (Emax) was 55% and the negative logarithm of the EC50 (pEC50) was 5.20.

In the case of `Cc1nc2cc(N(C)S(=O)(=O)c3cccc(-c4ccc(F)cc4)c3)ccc2o1` [Compound 295], the maximal response (Emax) turned out to be 56% and the pEC50 was 4.54. Taken in the same sequence, the figures for `Cc1nc2ccc(NS(=O)(=O)c3cccc(Br)c3)cc2s1` [Compound 195] were 60% and 4.31.

As to `Cc1nc2cc(NS(=O)(=O)c3cccc(-c4ccc(F)cc4)c3)ccc2s1` [Compound 188, 4′-fluoro-biphenyl-3-sulfonic acid (2-methyl-benzothiazol-5-yl)-amide], the Emax was found to be 81% and the pEC50 was 4.44. On the same counts, the results for `COc1cc(OC)nc(-c2ccc(NS(=O)(=O)c3ccc(-c4cnco4)s3)cc2)n1` [Compound 286, 5-oxazol-5-yl-thiophene-2-sulfonic acid [4-(4,6-dimethoxypyrimidin-2-yl)-phenyl]-amide] are 72% and 4.43. On to `O=S(=O)(Nc1ccc2ncsc2c1)c1cccc(-c2ccc(F)cc2)c1` [Compound 189, 4′-fluoro-biphenyl-3-sulfonic acid benzothiazol-6-ylamide], for which the Emax came out at 76%. For the compound `O=S(=O)(Nc1ccc(-n2cccn2)cc1)c1cccc(-c2ccc(F)cc2)c1` [Compound 297], the maximal response (Emax) is 80% and the pEC50 is 4.59. Taken in the same sequence, the figures for `COc1ccc(-c2cccc(S(=O)(=O)Nc3ccc(N(C)C)cc3)c2)cc1OC` [Compound 142, [4-(3′,4′-dimethoxy-biphenyl-3-sulfonylamino)-phenyl]-dimethylammonium; chloride] were 77% and 4.70. In the case of `CN(C)c1ccc(NS(=O)(=O)c2cc(-c3ccc(F)cc3)c(Cl)s2)cc1` [Compound 316, 5-chloro-4-(4-fluoro-phenyl)-thiophene-2-sulfonic acid (4-dimethylamino-phenyl)-amide], the maximum response (Emax) at 50 µM is 87% and the negative-log EC50 (pEC50) was 5.00. Taken in the same sequence, the figures for `Cc1cc(F)ccc1-c1ccc(S(=O)(=O)Nc2ccc(N(C)C)cc2)s1` [Compound 307] were 67% and 4.70. `COc1cccc(-c2cccc(S(=O)(=O)Nc3ccc(N(C)C)cc3)c2)c1` [Compound 204]: the Emax was 63% and the negative-log EC50 (pEC50) was roughly 4.60. Take `CSc1nc2ccc(NS(=O)(=O)c3ccc(Cl)cc3Cl)cc2s1` [Compound 132]: the Emax was 90% and the pEC50 is 4.40. `COc1cc(OC)nc(-c2ccc(NS(=O)(=O)c3ccc(Cl)c(Cl)c3)cc2)n1` [Compound 255]: the maximal response (Emax) at 50 µM is 88% and the pEC50 is 4.77. For `O=S(=O)(Nc1ccc(-n2cnc(Cl)c2Cl)cc1)c1cccc(-c2ccc(F)cc2)c1` [Compound 299], the Emax is 79% and the pEC50 is 5.02. Consider `Cc1ccc(C)n1-c1ccc(NS(=O)(=O)c2ccc(Cl)cc2Cl)cc1` [Compound 213], for which the Emax at 50 µM turned out to be 71% and the negative logarithm of the EC50 (pEC50) is 4.60. Turning to `CN(C)c1ccc(NS(=O)(=O)c2cccc(-c3cccc(O)c3)c2)cc1` [Compound 205], the Emax at 50 µM was 84% and the pEC50 is 4.70. Regarding `CN(C)c1ccc(N(C)S(=O)(=O)c2cccc(-c3ccc(F)cc3)c2)cc1` [Compound 282, 4′-fluoro-biphenyl-3-sulfonic acid (4-dimethylaminophenyl)-methylamide], the Emax at 50 µM amounted to 59% and the negative-log EC50 (pEC50) was 5.15.

Take `O=S(=O)(Nc1ccc2c(c1)OCO2)c1cccc(-c2ccc(F)cc2)c1` [Compound 186, 4′-fluoro-biphenyl-3-sulfonic acid benzo[1,3]dioxol-5-yl-amide]: the Emax came to 91% and the pEC50 was 4.72. For the compound `CN(c1ccc2c(c1)c1ccccc1n2C)S(=O)(=O)c1ccc(Cl)cc1Cl` [Compound 320], the Emax amounted to 45% and the pEC50 was 5.00.

For the compound `Cc1cc2c(n1-c1ccc(NS(=O)(=O)c3ccc(Cl)c(Cl)c3)cc1)CC(C)(C)CC2=O` [Compound 269], the maximal effect (Emax) was 64% and the negative-log EC50 (pEC50) was 4.72. For `Cc1nc2cc(NS(=O)(=O)c3cccc(-c4ccc(F)cc4)c3)ccc2o1` [Compound 190, 4′-fluoro-biphenyl-3-sulfonic acid (2-methyl-benzooxazol-5-yl)-amide], the Emax was 76% and the pEC50 was 4.60. On the same counts, the results for `CN(C)c1ccc(NS(=O)(=O)c2cc(-c3ccc(F)cc3)c(F)cc2F)cc1` [Compound 202] are 91% and 4.57. Consider `COc1cc(OC)nc(-c2ccc(NS(=O)(=O)c3ccc4ccccc4c3)cc2)n1` [Compound 266], for which the maximal response (Emax) amounted to 70% and the negative-log EC50 (pEC50) is 4.74. Regarding `Cc1cc2cc(N(C)S(=O)(=O)c3cccc(Br)c3)ccc2[nH]1` [Compound 209], the Emax at 50 µM was 64% and the pEC50 was 4.46. For the compound `COc1ccc(NS(=O)(=O)c2cccc(-c3ccc(F)cc3)c2)cc1` [Compound 250], the maximal response (Emax) came to 89% and the negative logarithm of the EC50 (pEC50) was 4.51. Taken in the same sequence, the figures for `CN(C)c1ccc(NS(=O)(=O)c2cc(-c3ccc(F)cc3)c(-c3ccc(F)cc3)s2)cc1` [Compound 317] were 45% and 4.36. Taken in the same sequence, the figures for `COc1cc(OC)nc(-c2ccc(NS(=O)(=O)c3cccc(-c4ccc(F)cc4)c3)cc2)n1` [Compound 235] were 85% and 4.70. Take `COc1cc(OC)nc(-c2ccc(NS(=O)(=O)c3ccc(Cl)cc3Cl)cc2)n1` [Compound 164, 2,4-dichloro-N-[4-(4,6-dimethoxy-pyrimidin-2-yl)-phenyl]-benzenesulfonamide]: the Emax at 50 µM turned out to be 85% and the pEC50 was 4.68.

As for `Cc1cc2c(n1-c1ccc(NS(=O)(=O)c3ccc(C(F)(F)F)cc3Cl)cc1)CC(C)(C)CC2=O` [Compound 283, 2-chloro-4-trifluoromethyl-N-[4-(2,6,6-trimethyl-4-oxo-4,5,-6,7-tetrahydro-indol-1-yl)-phenyl]-benzenesulfonamide], the maximal response (Emax) was determined as 63% and the pEC50 is 4.64. Consider `CC(C)(C)c1cc2cc(NS(=O)(=O)c3ccc(Cl)cc3)ccc2[nH]1` [Compound 173], for which the Emax at 40 µM amounted to 59% and the negative-log EC50 (pEC50) is 4.46. For `Cc1cc(C)nc(Nc2ccc(NS(=O)(=O)c3ccc(Cl)cc3Cl)cc2)n1` [Compound 182], the Emax turned out to be 77% and the negative logarithm of the EC50 (pEC50) is 4.60. With `Cc1cc2cc(NS(=O)(=O)c3cccc(C(F)(F)F)c3)ccc2[nH]1` [Compound 230], the maximal response (Emax) at 50 µM turned out to be 76% and the negative logarithm of the EC50 (pEC50) is less than 4.52.

On to `Cc1cc(C)nc(Nc2ccc(NS(=O)(=O)c3cccc(-c4ccc(F)cc4)c3)cc2)n1` [Compound 201], for which the Emax at 50 µM turned out to be 64% and the pEC50 was 4.44.
